Entries after “also recorded” stand apart in the source; their conditions may differ. Like-named read-outs stand apart in the source and are kept apart here.

What is called IC50 is the midpoint of a concentration-inhibition curve.

The test system of data set [1] is Bone marrow. Description: IC50 / toxicity in cells. The settings on record: Mus musculus. Type of data set: cell-based. On the procedure:
(§1) Specifically, BMNCs from three healthy donors were treated with different concentrations of ICA or ICT for 48 hours after which colony formation was assessed using MethoCult H4434 complete medium with cytokines. The mixture was placed in 35-mm culture dishes (1×10^5 cells/each dish) and incubated at 37° C. in 5% CO2 for approximately 7-14 days. After incubation, colonies of CFU-E, BFU-E and CFU-GM were indentified and counted using an inverted light microscope. […] Although, these cells were obtained from spleens, it was also found ICA/ICT has a similar effect on MDSCs isolated from tumor tissue. Here, Gr1^+ cells were isolated from tumors of 4T1 tumor-bearing mice. MDSCs were treated with 20 μM of ICA, ICT, or DMSO for 48 h. Bars represent the relative percentage of MDSC as compared to DMSO treated cells measured by flow cytometry (FIG. 3A). The production of ROS (FIG. 3B) and NO (FIG. 3C) activity of purified MDSC from tumor tissue was also measured.

Data set [2] relates to MDS BMNCs. In words: Colony formation (CFU-GM, BFU-E) in MethoCult H4434. Type of data set: cell-based. As to conditions: 20 uM for 48 h, 14 days culture. On the procedure:
Bone marrow mononuclear cells (BMCs) from MDS patients were treated with 20 uM ICT for 48 h, and then seeded into MethoCult H4434 complete medium, the mixture is placed in 35-mm culture dishes (1×10^5 cells/each dish) and incubated at 37° C. in 5% CO2 for 14 days. After incubation, colonies of CFU-GM and BFU-E were identified and counted using an inverted light microscope, as shown in FIGS. 21A and 21B respectively. Each point represents the mean results of […], and each experimental point represents duplicate plates. Results are expressed as mean value±SD.

In data set [3] the target is T1, PP2A bound to PDE5 (Homo sapiens, UniProt O76074).
T1 construct: Cells were then lysed and PDE5 was immunoprecipitated following a Western Blot with anti-PP2A; endogenous in cells; host or cells: human PBMC
Description: Co-immunoprecipitation of PDE5 with PP2A in PBMC. Type of data set: cell-based. As to conditions: 48 hours. On the procedure: Human PBMC were cultured for 48 hours with media, DMSO or increasing doses of ICT (1, 5, 10, 20 μM respectively). Cells were then lysed and PDE5 was immunoprecipitated following a Western Blot with anti-PP2A. Coomasie blue staining of the membrane is shown as loading control.
To understand if there is a link correlating S100A9/SIGLEC3 and PDE5 activation, SJCRH30 cells were transfected with either vector, S100A9 or SIGLEC 3. Seventy two hours post-transfection cells were lysed and assessed by Western Blot for either PDE5 or its phosphorylated counterpart.

The target in data set [4] is GMP-specific recombinant bovine phosphodiesterase Type V (Bos taurus, UniProt Q28156). In words: PDE5 phosphodiesterase inhibition, PDE-Glo system. Type of data set: biochemical.
In data set [5] the test system is CD16 (FcγRIII) in CD3− CD56+ NK cells. In words: Surface expression of CD16 in NK cells (flow cytometry). As to conditions: PBMC from healthy donors, 48 hours treatment. Type of data set: cell-based. On the procedure: FIG. 16 depicts the effect of ICA and ICT treatment on the surface expression of CD16 (FcγRIII) in NK cells. PBMC from healthy donors were treated with ICA/ICT or DMSO for 48 hours before analysis of CD16 expression by flow cytometry. NK cells were defined as CD3^− population and analyzed for the presence of CD16±CD56^+ cells as indicated.
An alternative strategy can be performed by measuring NK-mediated antibody dependent cytotoxicity (ADCC) on SIGLEC3^+ MDSC. […] This is particularly of interest, because these Fc receptors can be critical for the development of ADCC, a cytotoxic function of NK cells. This function can involve the activation of NK cells through the ligation of CD16 with an antibody already bound to a target cell which can trigger the target cell to undergo apoptosis through the release of cytotoxic granules containing perform and granzymes. Humanized anti-SIGLEC3/CD33 antibodies can be used to apply a strategy to deplete MDSC by NK-mediated ADCC.

Data set [6] has as its system PBMC. In words: IC50 / toxicity in cells. Format: cell-based.
Data set [7] relates to MDSCs isolated from tumors of 4T1 tumor-bearing mice. In words: ROS and NO production of MDSC isolated from tumors. Type of data set: cell-based. The settings on record: MDSCs from tissue of tumor-bearing mice, 20 μM, 48 h. As to the method: FIGS. 3A-3C depicts the effect of ICA and ICT on expansion of MDSCs isolated from tumor and their ROS and NO production. Gr1^+ cells were isolated from tumors of 4T1 tumor-bearing mice. (FIG. 3A) MDSCs were treated with 20 μM of ICA, ICT, or DMSO for 48 h. Bars represent the relative percentage of MDSC as compared to DMSO treated cells measured by flow cytometry. (FIG. 3B) Production of ROS and (FIG. 3C) NO activity of purified MDSC from tumor tissue.
as §1, with “MDSCs were treated with 20 μM of ICA, ICT, or DMSO for 48 h.” left out

The subject of data set [8] is 4T1 tumors. Description: 4T1 tumor growth in vivo. Also noted: species or system BALB/c mice. As to conditions: 100 mg/kg i.p. three times weekly. On the procedure:
One of the most striking features of ICA and ICT is their anti-tumorigenic ability in vivo. Seven days post-infection 1 cm diameter 4T1 tumors from 5 mice were established in BALB/c mice. Mice were treated with 100 mg/kg of ICA, ICT or vehicle (i.p.) three times weekly and tumor size (mean and SD) was monitored every 2 to 3 days. The percentages of double-positive Gr-1+CD11b′ MDSCs were determined for spleens of five mice per group. Cell phenotype was evaluated by flow cytometry. […] ICA or ICT on the differentiation of MDSC.

Data set [9] has as its system BMNCs from three healthy donors. Description: Colony formation (CFU-E, BFU-E, CFU-GM) in MethoCult H4434. As to conditions: healthy donor BMNCs treated 48 hours, different concentrations. Format: cell-based. On the procedure:
FIG. 2 depicts the effect, or lack thereof, of ICA and ICT on hematopoiesis. BMNCs from three healthy donors were treated with ICA or ICT for 48 hours after which colony formation was assessed using MethoCult H4434 complete medium with cytokines. CFU-E, BFU-E and CFU-GM were indentified and counted using an inverted light microscope. Each bar represents the mean results of three individuals with duplicate plates. Results are expressed as means±SD.
as §1, with “MDSCs were treated with 20 μM of ICA, ICT, or DMSO for 48 h.” left out

For the compound `COc1ccc(-c2oc3c(CC=C(C)C)c(O[C@@H]4O[C@H](CO)[C@@H](O)[C@H](O)[C@H]4O)cc(O)c3c(=O)c2O[C@@H]2O[C@@H](C)[C@H](O)[C@@H](O)[C@H]2O)cc1` [ICA, Icariin], the IC50 in data set [1] (BMMC) and in [6] was more than 100 µM in each case. Also, the “hematopoiesis of MDS BMNCs (CFU-GM, BFU-E colonies)” value in [2] is recorded as “increase the hematopoiesis of MDS BMNCs”. Besides, the “association of PP2A with PDE5” value in [3] is “decreased”. Besides, in data set [4], the “phosphodiesterase (enzymatic) activity of PDE5” value was “block the phosphodiesterase activity of PDE5; also recorded: inhibit the enzymatic activity of PDE5”. In addition, the “expression level of Fc receptor (CD16, FcγRIII) in NK cells” value in [5] is “increase the expression level of Fc receptor”. The “NO and ROS production by MDSCs” value in data set [7] is “inhibit NO and ROS production”. Also, the “tumor growth in vivo” value in data set [8] is “inhibit tumor growth in vivo”. The “effect on hematopoiesis (colony formation)” value in data set [9] is “do not affect hematopoiesis”.

As for `COc1ccc(-c2oc3c(CCC(C)(C)O)c(O)cc(O)c3c(=O)c2O)cc1` [ICT, 3,5,7-trihydroxy-4′-methoxy-8-(3-hydroxy-3-methylbutyl)-flavone], the IC50 was more than 100 µM in data set [1] (Bone marrow (bone marrow mononuclear cells, BMMC), read-out: IC50) and more than 100 µM in data set [6] (read-out: IC50). Moreover, in [2], the “hematopoiesis of MDS BMNCs (CFU-GM, BFU-E colonies)” value is on record as “increase the hematopoiesis of MDS BMNCs”. Also, the “association of PP2A with PDE5” value in [3] is on record as “decreased”. In addition, the “phosphodiesterase (enzymatic) activity of PDE5” value in data set [4] is recorded as “block the phosphodiesterase activity of PDE5; also recorded: inhibit the enzymatic activity of PDE5”. Further, in [5], the “expression level of Fc receptor (CD16, FcγRIII) in NK cells” value is “increase the expression level of Fc receptor”. Also, the “NO and ROS production by MDSCs” value in [7] was “inhibit NO and ROS production”. Moreover, the “tumor growth in vivo” value in data set [8] is on record as “inhibit tumor growth in vivo”. For the same compound, the “effect on hematopoiesis (colony formation)” value in data set [9] is on record as “do not affect hematopoiesis”.

For the origin of these results see patent US20200354331A1, “ICARIIN DERIVATIVES” (H. LEE MOFFITT CANCER CENTER AND RESEARCH INSTITUTE, INC., priority 2014, published 2020).
